{
  "source": "ChEMBL document CHEMBL3217715",
  "about": "“Are pyridazines privileged structures?” (Medchemcomm, 2011)",
  "target": "D(2) dopamine receptor (Homo sapiens, UniProt P14416)",
  "sequence (P14416 whole entry)": "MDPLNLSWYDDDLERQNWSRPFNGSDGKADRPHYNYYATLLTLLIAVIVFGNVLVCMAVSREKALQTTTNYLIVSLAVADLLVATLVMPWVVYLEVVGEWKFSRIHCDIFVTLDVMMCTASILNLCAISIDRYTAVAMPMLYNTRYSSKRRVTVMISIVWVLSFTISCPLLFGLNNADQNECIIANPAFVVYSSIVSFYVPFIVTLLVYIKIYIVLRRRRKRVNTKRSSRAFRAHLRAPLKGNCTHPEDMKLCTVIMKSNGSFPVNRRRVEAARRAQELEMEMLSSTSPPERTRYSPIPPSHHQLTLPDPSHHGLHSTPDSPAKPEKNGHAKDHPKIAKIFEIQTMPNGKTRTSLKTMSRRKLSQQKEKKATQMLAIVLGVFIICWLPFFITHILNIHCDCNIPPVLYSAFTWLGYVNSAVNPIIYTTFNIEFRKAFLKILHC",
  "assay": "Antagonist activity at dopamine D2 receptor (unknown origin)",
  "data": [
    {"smiles": "CCN1CCCC1CNc1nncc2ccc(OC)c(OC)c12", "note": "(stereo unspecified)", "values": [
      {"measurement": "Ki", "result": 3.9, "unit": "nM"}
    ]}
  ]
}
